This is an account of results in patent publication US6898455B2, “Method for providing optimal drug dosage” (The McLean Hospital Corporation, priority 1999, dated 2005).

One assay relates to adult ADHD subjects. The following applies: i.v., Ernst et al. 1998; cited from earlier work.
Assay [1] deals with regional brain metabolism. The conditions noted are these: cited from earlier work; for effect of chronic treatment on regional brain metabolism (PET): adult ADHD patients, Matochik et al. 1994.
The subject of assay [2] is cerebellar vermis of boys with ADHD. The assay is described as follows: T2 relaxometry (fMRI) of the cerebellar vermis after one week of daily treatment. The format is in vivo, human. The conditions noted are these: for decrease in vermal T2-RT relative to placebo (average): three least active boys with ADHD. How it is done:
(§1) In one particular embodiment, T2 relaxometry was used to indirectly assess blood volume in the cerebellum (hemispheres and midline vermis) of ten ADHD boys treated continuously for one week with placebo and three different doses of MPH. […] Following each week of treatment, and within 1-3 hours of their afternoon dose, testing for drug efficacy was performed using objective measures of activity.
Ten boys with ADHD (9.3±1.6 yr), and six healthy comparison subject boys (10.2±1.5 yr) were studied. Children with ADHD were screened using structured diagnostic interview (the Schedule for Affective Disorders and Schizophrenia for School-Age Children—Epidemiologic Version, “K-SADS-E”) and included if they met criteria for ADHD, and had at least 6 of 9 symptoms of inattention or hyperactivity-impulsivity. Children then took part in a triple blind (parent, child, rater), randomized, placebo-controlled study on the effects of methylphenidate (0, 0.5, 0.8, 1.5 mg/kg/day in two divided doses) on activity and fMRI. Children were treated continuously for one week with placebo or specific dose of methylphenidate. They were tested on day seven for drug response using objective measures of activity immediately following fMRI.
On test days, parents were instructed to give the afternoon dose 1 hour prior to their MRI appointment. Medication administration was assessed at each visit to insure that time between ingestion and testing were held constant for each subject throughout the study.
During each examination, 3 categories of images were obtained: (1) Scout images (typically T1-weighted sagittal images); (2) High resolution T1 matched axial images through the ten planes for which maps of T2 were generated; and (3) 32 spin echo, echoplanar image sets, with TE incremented by 4 msec in each consecutive image set (e.g. TE (1)=32 msec, TE (2)=36 msec, . . . TE (32)=156 msec) through the same ten axial planes ([…], Slice thickness=7 mm with a 3 mm skip, in-plane resolution=3.125 mm×3.125 mm, FOV=200 mm). The 32 TE-stepped images were then transferred to an off-line workstation and corrected for in plane motion using a modification of the DART image registration algorithm.
Values of T2 (x, y) and S (TE=0, x, y) were then calculated on a pixel-wise basis, assuming exponential decay, i.e. 1n [S (x, y, n)]=1n [S (TE=0), x, y]−TE (n)/T2 (x, y) where (x, y) describe the location of the pixel; n characterizes the echo number, from 1 to 32; and S is the image signal intensity. Linear least-squares regression was used to calculate a single T2 relaxation time measure for each pixel (x, y). Calculations of regional T2 relaxation time were made for regions of interest (ROI) drawn manually under the guidance of conventional T1-wighted matched MRI images in 2 to 4 slices through the cerebellum using anatomic boundaries observed in T1-weighted, preliminary T2-RT maps, and an atlas of the cerebellum. ROI slice selections were based on an assessment of the presence of cerebral spinal fluid in order to minimize partial volume artifacts, which result in abnormally elevated T2 relaxation times (values>100 msec were rejected). Sixteen voxel ROI's in the vermis were conservatively limited to square regions ([…]), to avoid encroaching into ventricular space and to provide consistency between slices and subjects.
FIGS. 7A and 7B show representative cerebellar ROIs including the vermis V and the left and right cerebella C. Delineation of regions and analysis of imaging data were performed on coded images, by an analyst very familiar with cerebellar anatomy who was blind to the identity, diagnosis, and treatment condition of the subject.

Assay [3] has as its system cerebellum of the most hyperactive ADHD boys. The assay is described as follows: T2 relaxometry of the cerebellum, blinded placebo-controlled daily treatment (summary study). It counts as in vivo, human. The following applies: eight of the most hyperactive boys; F3,21=5.011, p=0.0089. The text has this:
With this particular arrangement, an apparatus for indirectly assessing blood volume in the striatum (caudate and putamen and cerebellum) under steady-state conditions and for non-invasively diagnosing ADHD is provided. […] In one study eleven boys with ADHD had higher T2 relaxation times than six non-ADHD boys. The probability of this occurring by chance is 0.8%. The relaxation times correlated with the child's capacity to sit still, and their accuracy in performing a computerized attention task. Product-moment correlation coefficients (denoted r) for each of the above activities as well as with a probability of finding this occurrence by chance (denoted p) were computed using conventional techniques. […] It was discovered that ADHD symptoms may be closely tied to functional abnormalities in the putamen and cerebellum which are predominantly involved in the regulation and coordination of motoric behavior. […] It should also be appreciated that the apparatus and technique of the present invention may be equally applied to other brain regions (or even other organs) and may be useful for diagnosing conditions other than ADHD.
Referring now to FIG. 5, a T2 relaxation time image of the brain and cerebellum is shown. Circumscribed ROIs are illustrated for the cerebellar vermis V as well as, right R and left L cerebellar hemispheres. […]

In assay [4] the test system is putamen of children with ADHD. The assay is described as follows: T2 relaxometry of the putamen, blinded placebo-controlled daily treatment. It counts as in vivo, human. The following applies: p=0.006. The text has this:
(§2) With this particular arrangement, an apparatus for indirectly assessing blood volume in the striatum (caudate and putamen and cerebellum) under steady-state conditions and for non-invasively diagnosing ADHD is provided. […] In one study eleven boys with ADHD had higher T2 relaxation times than six non-ADHD boys. The probability of this occurring by chance is 0.8%. The relaxation times correlated with the child's capacity to sit still, and their accuracy in performing a computerized attention task. Product-moment correlation coefficients (denoted r) for each of the above activities as well as with a probability of finding this occurrence by chance (denoted p) were computed using conventional techniques. […] It was discovered that ADHD symptoms may be closely tied to functional abnormalities in the putamen and cerebellum which are predominantly involved in the regulation and coordination of motoric behavior. […]
(§3) Turning now to FIG. 2, processing begins in steps 40 and 42 in which after positioning subjects to be tested (e.g. children or other persons possibly having brain dysfunction) in a scanning region of an MRI system of the type described above in conjunction with FIG. 1, and instructing the subjects to remain as still as possible, images of particular regions of interest (ROI) are acquired by perturbing the magnetic field in the subject and taking readings at particular times. […]

In assay [5] the test system is cerebellar hemispheres of boys with ADHD. The assay is described as follows: T2 relaxometry (fMRI) of the cerebellar hemispheres after one week of daily treatment. It counts as in vivo, human. The conditions noted are these: Dose F=0.88, p>0.4; Dose x Activity F=0.47, p>0.7. How it is done:
as §1
Ten boys with ADHD (9.3±1.6 yr), and six healthy comparison subject boys (10.2±1.5 yr) were studied. Children with ADHD were screened using structured diagnostic interview (the Schedule for Affective Disorders and Schizophrenia for School-Age Children—Epidemiologic Version, “K-SADS-E”) and included if they met criteria for ADHD, and had at least 6 of 9 symptoms of inattention or hyperactivity-impulsivity. […]
On test days, parents were instructed to give the afternoon dose 1 hour prior to their MRI appointment. Medication administration was assessed at each visit to insure that time between ingestion and testing were held constant for each subject throughout the study. […]
Values of T2 (x, y) and S (TE=0, x, y) were then calculated on a pixel-wise basis, assuming exponential decay, i.e. 1n [S (x, y, n)]=1n [S (TE=0), x, y]−TE (n)/T2 (x, y) where (x, y) describe the location of the pixel; n characterizes the echo number, from 1 to 32; and S is the image signal intensity. […]

Assay [6] deals with caudate or thalamus of children with ADHD. The assay is described as follows: T2 relaxometry of caudate and thalamus, blinded placebo-controlled daily treatment. It counts as in vivo, human.
Text: as §2, §3

Assay [7] deals with putamen of children with ADHD. The following applies: stated as known; cited from earlier work.

The structures appear in SMILES notation.

Turning to `C[C@H](N)Cc1ccccc1` [dextroamphetamine], the effect on attention result in the assay with adult ADHD subjects was “robust effects on attention”. The “effect of chronic treatment on regional brain metabolism (PET)” value in assay [1] is “no consistent effect”. Besides, in assay [1] (i.v., adult ADHD subjects, Ernst et al. 1998), the “effect on global or regional metabolic rates” value is on record as “no consistent effect”.
Regarding `COC(=O)C(c1ccccc1)C1CCCCN1` (stereo not drawn) [methylphenidate], the “increase in vermal T2-RT relative to placebo” value in assay [2] (high dose (1.5 mg/kg/day, one week), seven hyperactive ADHD boys) is 5.1%; in assay [2] (intermediate dose (0.8 mg/kg/day, one week), seven hyperactive ADHD boys), 2.1%; in assay [2] (low dose (0.5 mg/kg/day, one week), seven boys at least 20% more active than the most active comparison subject), 1.2%. Besides, the “decrease in vermal T2-RT relative to placebo (average)” value in assay [2] (high dose (1.5 mg/kg/day, one week)) worked out at 3.9%; in assay [2] (intermediate dose (0.8 mg/kg/day, one week)), 3.5%; in assay [2] (low dose (0.5 mg/kg/day, one week)), 1.3%. Further, the “group effect (hyperactive vs non-hyperactive boys) on percent change in vermis T2-RT” value in assay [2] (high dose, F=15.98, df=1, 8, p=0.004) is given as “significant group effect”; in assay [2] (intermediate dose, F=6.75, df=1, 8, p=0.04), “significant group effect”; in assay [2] (low dose, F=0.63, df=1, 8, p=0.63), “non-significant group effect”. In addition, the “effect size (Cohen d) of the medication-induced change in T2-RT” value in assay [2] (highest dose, hyperactive subjects, 95% CI in brackets) was 2.13 (95% CI, 0.82-3.44). In addition, the “effect of moderate and high doses on T2-RT (direction by basal activity)” value in assay [2] (increase in the most active ADHD children, reduction in those not objectively hyperactive) is recorded as “increased T2-RT in a rate-dependent manner”. Besides, the “effect of dose on cerebellar or vermal T2-RT, repeated-measures ANOVA without covariate” value in assay [2] (ten ADHD boys, F=1.167, df=3, 27, p=0.34) is on record as “failed to reveal any significant effect of dose”. Moreover, in assay [2] (ten ADHD boys, F=4.85, df=3, 24, p=0.009, effect of dose linear), the “effect of treatment on vermal T2-RT, analysis of covariance with motor activity” value is on record as “robust effect”. Further, the “effect on relaxation times in the cerebellum” value in assay [3] was “dose-dependently altered”. The “effect on relaxation times in the putamen” value in assay [4] is reported as “significantly altered”. Besides, the “effect of treatment on T2-RT in the adjacent cerebellar hemispheres” value in assay [5] is listed as “No effect”. Further, the “change of relaxation times in caudate or thalamus” value in assay [6] was “nor did relaxation times in these regions change”. In addition, in assay [7], the “effect of daily high-dose treatment on T2-RT in the putamen” value is on record as “changed T2-RT in the putamen”. The “effect of chronic treatment on regional brain metabolism (PET)” value in assay [1] was “no consistent effect”. In addition, the “effect on frontotemporal metabolism” value in assay [1] (subjects with high availability of DA D2 receptors, Volkow et al. 1997) is given as “increased frontotemporal metabolism”. Further, in assay [1] (subjects with low availability of D2 receptors, Volkow et al. 1997), the effect on metabolism entry was “decreased metabolism”.
